Patent US12180139B2, “Method for preparing aminoalkanoic acid derivative containing biphenyl group” (AMTIXBIO CO., LTD., priority 2019, dated 2024)

Experiments:
[1] = tested on: B. cereus (+); experiment: Antibacterial MIC test (CLSI); assay type: cell-based; conditions: MHB liquid medium, 37° C., 24 hours
Experimental: (§1) The MIC test was conducted in accordance CLSI guidelines. […] As a positive control, Nofloxacin and Vancomycin were used.

[2] = tested on: B. coagulans (+); experiment: Antibacterial MIC test (CLSI); assay type: cell-based; conditions: MHB liquid medium, 37° C., 24 hours
Experimental: as §1

[3] = tested on: B. subtilis (+); experiment: Antibacterial MIC test (CLSI); assay type: cell-based; conditions: MHB liquid medium, 37° C., 24 hours
Experimental: as §1

[4] = tested on: E. coli (−); experiment: Antibacterial MIC test (CLSI); assay type: cell-based; conditions: MHB liquid medium, 37° C., 24 hours
Experimental: as §1

[5] = tested on: L. monocytogenes (+); experiment: Antibacterial MIC test (CLSI); assay type: cell-based; conditions: MHB liquid medium, 37° C., 24 hours
Experimental: as §1

[6] = tested on: M. luteus (+); experiment: Antibacterial MIC test (CLSI); assay type: cell-based; conditions: MHB liquid medium, 37° C., 24 hours
Experimental: as §1

[7] = tested on: P. acnes (+); experiment: Antibacterial MIC test (CLSI); assay type: cell-based; conditions: MHB liquid medium, 37° C., 24 hours
Experimental: as §1

[8] = tested on: S. aureus enterica (−); experiment: Antibacterial MIC test (CLSI); assay type: cell-based; conditions: MHB liquid medium, 37° C., 24 hours
Experimental: as §1

[9] = tested on: S. aureus (+); conditions: MHB liquid medium, 37° C., 24 hours
Experimental: (§2) The antibacterial activities against Gram-positive bacteria, Gram-negative bacteria or multi-drug resistant bacteria were evaluated for the compounds of the present invention. The MIC test was conducted in accordance CLSI guidelines. E. coli(−), P. aeruginosa(−), and S. enterica(−) were used as Gram-negative bacteria, B. cereus(+), B. subtilis(+), B. coagulans(+), L. monocytogenes(+), M. luteus(+), P. acnes(+), S. epidermidis(+), and S. aureus(+) were used as Gram-positive bacteria. Methicillin-resistant Staphylococcus aureus (MRSA) was used as multi-drug resistant bacteria. The bacterial cells were incubated until the OD600 of the single colonies reached 0.1. […] Subsequently, bacterial cells were incubated at 37° C. for 24 hours, and then the MICs (μg/ ? ) were determined by visual reading and optical density detection at 600 nm (OD600). As a positive control, Nofloxacin and Vancomycin were used.

[10] = tested on: S. epidermidis (+); conditions: MHB liquid medium, 37° C., 24 hours
Experimental: as §2

[11] = tested on: MRSA; experiment: Antibacterial MIC test (CLSI); assay type: cell-based, Methicillin-resistant Staphylococcus aureus; conditions: MHB liquid medium, 37° C., 24 hours
Experimental: as §1

[12] = tested on: C. neoformans; conditions: RPMI1640 broth, 35° C., 72 hours, visual reading; expressed as a range value
[13] = tested on: C. albicans; conditions: RPMI1640 broth, 35° C., 48 hours, visual reading; expressed as a range value
[14] = tested on: C. glabrata; conditions: RPMI1640 broth, 35° C., 48 hours, visual reading; expressed as a range value
Experimental: An in vitro antifungal susceptibility test was performed in accordance with the US Clinical and Laboratory Standards Institute (CLSI) guidelines to measure the degree of antifungal activity of the compounds synthesized in the Preparation Examples against opportunistic pathogenic fungi. […] The MIC value (μg/ ? ) is expressed as a range value. Specifically, Candida species and Cryptococcus neoformans were incubated in a Sabouraud dextrose agar (SDA) (Sigma-Aldrich) solid medium for 24 and 48 hours, respectively to obtain single colonies. The obtained single colonies were suspended in 0.85% physiological saline to prepare fungal cell suspension (1 to 5×10^6 cells/ ? ). Fungal cells 2000-fold diluted in RPMI1640 broth (Sigma-Aldrich) were seeded on 96-well plates (5×10^2 to 2.5×10^3 cells/ ? , 195 ? /well). Serial two-fold dilutions (128, 64, 32, 16, 8, 4, 2, 1, and 0.5 μg/ ? ) of compounds were prepared by diluting the compounds synthesized according to the above preparation examples. Then, 5 ? from each dilution was added to the well of the 96-well plate containing fungal cell suspension to give a final suspension of 200 ? per well. […] As a positive control, amphotericin B (AMB), which is highly toxic to the human body but is known as a representative antifungal agent, was used.

[15] = tested on: A. fumigatus; conditions: visual reading; expressed as a range value

Compound | MIC B. cereus (+) [1] | MIC B. coagulans (+) [2] | MIC B. subtilis (+) [3] | MIC E. coli (−) [4] | MIC L. monocytogenes (+) [5] | MIC M. luteus (+) [6] | MIC P. acnes (+) [7] | MIC S. aureus enterica (−) [8] | MIC S. aureus (+) [9] | MIC S. epidermidis (+) [10] | MIC MRSA [11] | MIC (μg/mL) C. neoformans [12] | MIC (μg/mL) C. albicans [13] | MIC (μg/mL) C. glabrata [14] | MIC (μg/mL) A. fumigatus [15]
CCCCC(N)C(=O)NCCc1ccc(-c2ccc(OC(F)(F)F)cc2)cc1.Cl (racemic) [Compound 81, (R)/(S)-2-amino-N-(2-(4′-(trifluoromethoxy)-[1,1′-biphenyl]-4-yl)ethyl)hexanamide hydrochloride] | 16 µg/mL | <4 µg/mL | 4 µg/mL | 8 µg/mL | <4 µg/mL | <4 µg/mL | 8 µg/mL | 16 µg/mL | 8 µg/mL | 8 µg/mL | 8 µg/mL | 2~8 μg/mL | 2~8 μg/mL | 2~8 μg/mL | 2~8 μg/mL
CCCC(NC)C(=O)NCCc1ccc(-c2ccc(Cl)c(Cl)c2)cc1.Cl (racemic) [Compound 84, (R)/(S)-N-(2-(3′,4′-dichloro-[1,1′-biphenyl]-4-yl)ethyl)-2-(methylamino)pentanamide hydrochloride] | 32 µg/mL | 8 µg/mL | 16 µg/mL | >32 µg/mL | 16 µg/mL | 16 µg/mL | 16 µg/mL | >32 µg/mL | 16 µg/mL | 16 µg/mL | 16 µg/mL | 2~8 μg/mL | 4~1 μg/mL | 4~1 μg/mL | 4~1 μg/mL
CCCCC(NC)C(=O)NCCc1ccc(-c2ccc(Cl)c(Cl)c2)cc1.Cl (racemic) [Compound 85, (R)/(S)-N-(2-(3′,4′-dichloro-[1,1′-biphenyl]-4-yl)ethyl)-2-(methylamino)hexanamide hydrochloride] | 32 µg/mL | 4 µg/mL | 16 µg/mL | >32 µg/mL | 16 µg/mL | 8 µg/mL | 16 µg/mL | >32 µg/mL | 16 µg/mL | 16 µg/mL | 16 µg/mL | 0.5~4 μg/mL | 0.5~4 μg/mL | 0.5~4 μg/mL | 0.5~4 μg/mL
CCC(NC)C(=O)NCCc1ccc(-c2ccc(C(F)(F)F)cc2)cc1.Cl (racemic) [Compound 86, (R)/(S)-2-(methylamino)-N-(2-(4′-(trifluoromethyl)-[1,1′-biphenyl]-4-yl)ethyl)butanamide hydrochloride] | 64 µg/mL | <4 µg/mL | 32 µg/mL | 32 µg/mL | 16 µg/mL | 16 µg/mL | 16 µg/mL | 64 µg/mL | 32 µg/mL | 16 µg/mL | 32 µg/mL | 8~32 μg/mL | 16~64 μg/mL | 16~64 μg/mL | 16~64 μg/mL
